The record followed here is US12258338B2, “Modulators of the integrated stress response pathway” (EVOTEC INTERNATIONAL GMBH, priority 2019, dated 2025).

≈ marks a conversion by molar mass, not a printed value.

System in one data set: not listed separately
The data set is described as follows: Thermodynamic (Equilibrium) solubility in selected buffer. The settings on record: acetate buffer 50 mM, aqueous buffer, thermodynamic from solid; pH 5.5; Table 25; read-out: Solubility (μg/mL) pH 5.5. Type of data set: physicochemical. Here is the method:
Protocol—Thermodynamic (Equilibrium) Solubility in Selected Buffer
Example compounds were tested in the Thermodynamic (Equilibrium) solubility in selected buffer assay. The test compound, in powder form, was weighted into a 4 mL glass vial and a calculated volume of selected medium was added to reach the target concentration of the solubility test (1 mg/mL). The solution was then stirred overnight at r.t. protected from the light. The solution was filtered through a 0.45 μm PTFE membrane at ambient temperature. An aliquot of the resulting filtrate was quantified using UPLC-UV method described below against a reference solution of the test compound, 0.8 mg/mL in DMSO. Media compositions: Phosphate buffer 50 mM (pH=2.0) […] of NaH2PO4, H2O in 200 mL of ultrapurified water adjusted at pH 2 with phosphoric acid 85%; Acetate buffer 50 mM (pH=5.5) 820 mg of anhydrous sodium acetate in 200 mL of ultrapurified water adjusted at pH 5.5 with acetic acid 99.8%; Phosphate buffer 50 mM (pH=7.4) 40.5 mL of Na2HPO4 0.1 M solution+9.5 mL of NaH2PO4 0.1 M solution. Analytical conditions: UPLC-UV-MS analyses were performed with a Waters Acquity UPLC HClass-PDA-QDa system using a reverse phase Acquity BEH C18 column (2.1 mm×50 mm, 1.7 μm; temperature: 40° C.) and a gradient of 10-95% B (A=0.1% formic acid in H2O; B=0.05% formic acid in ACN) over 1.8 min then 100% B for 0.8 min, with an injection volume of 0.4 μL at flow rate of 0.65 mL/min. UV chromatograms were recorded at 220 nm, 254 nm and 290 nm using a photo diode array detector. Mass spectra were recorded in the 150 to 900 M/Z range at a sampling rate of 10 scans per sec using a QDa detector. Data were integrated using Empower®3 software. Data Analysis: Equilibrium solubility of the test compound in the selected medium was calculated through the ratio of the surface area of the UV chromatographic peak of the compound in the filtrate to the surface of the UV chromatographic peak of the compound in the reference solution.
Regarding `O=C(CO[C@H]1C[C@@H](OC(F)(F)F)C1)N[C@@H]1CC[C@@H](c2nnc(-c3ccc(Cl)cc3)o2)NC1` [Example 5], the solubility was determined as 215 µg/mL (≈ 453 µM).

The same data set, now with this note: pH 2.0; Table 25.
On to `O=C(CO[C@H]1C[C@@H](OC(F)(F)F)C1)N[C@@H]1CC[C@@H](c2nnc(-c3ccc(Cl)cc3)o2)NC1` [Example 5], for which the “Solubility (μg/mL) pH 2.0” value is given as “quant.^#”.

Still in this data set, the particulars now being: phosphate buffer 50 mM, aqueous buffer, thermodynamic from solid; pH 7.4; Table 25; read-out: Solubility (μg/mL) pH 7.4.
`O=C(CO[C@H]1C[C@@H](OC(F)(F)F)C1)N[C@@H]1CC[C@@H](c2nnc(-c3ccc(Cl)cc3)o2)NC1` [Example 5]: the solubility turned out to be 278 µg/mL (≈ 585 µM).

The subject of the next data set is ATF4. The data set can be described thus: HEK-ATF4 High Content Imaging assay (prevention of Tunicamycin induced ISR; ATF4 signal ratio between nucleus and cytoplasm). The class given is cell-based. As to conditions: Homo sapiens; Wild-type HEK293 cells, Tunicamycin induced ISR, 6 h; read-out: IIEK-ATF4 Activity. Here is the method:
HEK-ATF4 High Content Imaging Assay
Example compounds were tested in the HEK-ATF4 High Content Imaging assay to assess their pharmacological potency to prevent Tunicamycin induced ISR. Wild-type HEK293 cells were plated in 384-well imaging assay plates at a density of 12,000 cells per well in growth medium (containing DMEM/F12, 10% FBS, 2 mM L-Glutamine, 100 U/mL Penicillin-100 μg/mL Streptomycin) and incubated at 37° C., 5% CO2. 24 h later, the medium was changed to 50 μL assay medium per well (DMEM/F12, 0.3% FBS, 2 mM L-Glutamine, 100 U/mL Penicillin-100 μg/mL Streptomycin). Example compounds were serially diluted in DMSO, spotted into intermediate plates and prediluted with assay medium containing 3.3 μM Tunicamycin to give an 11-fold excess of final assay concentration. In addition to the example compound testing area, the plates also contained multiples of control wells for assay normalization purposes, wells containing Tunicamycin but no example compounds (High control), as well as wells containing neither example compound nor Tunicamycin (Low control). The assay was started by transferring 5 μL from the intermediate plate into the assay plates, followed by incubation for 6 h at 37° C., 5% CO2. Subsequently, cells were fixed (4% PFA in PBS, 20 min at r.t.) and submitted to indirect ATF4 immunofluorescence staining (primary antibody rabbit anti ATF4, clone D4B8, Cell Signaling Technologies; secondary antibody Alexa Fluor 488 goat anti-rabbit IgG (H+L), Thermofisher Scientific). Nuclei were stained using Hoechst dye (Thermofisher Scientific), and plates were imaged on an Opera Phenix High Content imaging platform equipped with 405 nm and 488 nm excitation. Finally, images were analyzed using script based algorithms. The main readout HEK-ATF4 monitored the ATF4 signal ratio between nucleus and cytoplasm. Tunicamycin induced an increase in the overall ATF4 ratio signal, which was prevented by ISR modulating example compounds. In addition, HEK-CellCount readout was derived from counting the number of stained nuclei corresponding to healthy cells. This readout served as an internal toxicity control.
`CC(C)(C)OC(=O)N1C[C@@H](NC(=O)COc2ccc(Cl)c(F)c2)CC[C@@H]1c1nnc(-c2ccc(Cl)cc2)o1` [Example 39, tert-butyl (2R,5S)-5-[2-(4-chloro-3-fluorophenoxy)acetamido]-2-[5-(4-chlorophenyl)-1,3,4-oxadiazol-2-yl]piperidine-1-carboxylate]: the IC50 lay within 2 to 15 µM.

Consider `C[C@H](Oc1ccc(Cl)cc1)C(=O)N[C@H]1CC[C@H](c2nnc(-c3ccc(C(F)(F)F)cc3)o2)NC1` (single isomer, unassigned) [Example 107], for which the IC50 lay within 2 to 15 µM.

With `O=C(COc1ccc(F)c(Cl)c1)N[C@H]1CC[C@H](c2nnc(OCCC(F)(F)F)o2)NC1` [Example 18, 2-(3-chloro-4-fluorophenoxy)-N-[(3S,6R)-6-[5-(3,3,3-trifluoropropoxy)-1,3,4-oxadiazol-2-yl]piperidin-3-yl]acetamide], the IC50 fell in the range of 0.5 to 2 µM.

On to `O=C(COc1ccc(Cl)c(F)c1F)N[C@H]1CC[C@H](c2nnc(OCCC(F)(F)F)o2)NC1` [Example 21, 2-(4-chloro-2,3-difluorophenoxy)-N-[(3S,6R)-6-[5-(3,3,3-trifluoropropoxy)-1,3,4-oxadiazol-2-yl]piperidin-3-yl]acetamide], for which the IC50 was 0.5 to 2 µM.

For the molecule `O=C(COc1ccc(Cl)cc1F)N[C@H]1CC[C@H](c2nnc(OCCC(F)(F)F)o2)NC1` [Example 17, 2-(4-chloro-2-fluorophenoxy)-N-[(3S,6R)-6-[5-(3,3,3-trifluoropropoxy)-1,3,4-oxadiazol-2-yl]piperidin-3-yl]acetamide], the IC50 was in the range of 2 to 15 µM.

Consider `O=C(COc1ccc(C(F)(F)F)cc1)N[C@H]1CC[C@H](c2nnc(OCCC(F)(F)F)o2)NC1` [Example 19, 2-[4-(trifluoromethyl)phenoxy]-N-[(3S,6R)-6-[5-(3,3,3-trifluoropropoxy)-1,3,4-oxadiazol-2-yl]piperidin-3-yl]acetamide], for which the IC50 lay within 0.5 to 2 µM.

In the case of `O=C(COc1ccc(C(F)(F)F)c(F)c1)N[C@H]1CC[C@H](c2nnc(OCCC(F)(F)F)o2)NC1` [Example 23, 2-[3-fluoro-4-(trifluoromethyl)phenoxy]-N-[(3S,6R)-6-[5-(3,3,3-trifluoropropoxy)-1,3,4-oxadiazol-2-yl]piperidin-3-yl]acetamide], the IC50 was 0.001 to 0.5 µM.

With `O=C(COc1cc(F)c(Cl)c(F)c1)N[C@H]1CC[C@H](c2nnc(OCCC(F)(F)F)o2)NC1` [Example 22, 2-(4-chloro-3,5-difluorophenoxy)-N-[(3S,6R)-6-[5-(3,3,3-trifluoropropoxy)-1,3,4-oxadiazol-2-yl]piperidin-3-yl]acetamide], the IC50 is 0.5 to 2 µM.

In the case of `O=C(COc1ccc(Br)cc1)N[C@H]1CC[C@H](c2nnc(OCCC(F)(F)F)o2)NC1` [Example 27, 2-(4-bromophenoxy)-N-[(3S,6R)-6-[5-(3,3,3-trifluoropropoxy)-1,3,4-oxadiazol-2-yl]piperidin-3-yl]acetamide], the IC50 lay within 0.001 to 0.5 µM.

On to `O=C(COc1ccc(Cl)c(F)c1)N[C@H]1CC[C@H](c2nnc(-c3ccc(Cl)cc3)o2)NC1=O` (racemic) [Example 37, Rac-2-(4-chloro-3-fluorophenoxy)-N-[6-[5-(4-chlorophenyl)-1,3,4-oxadiazol-2-yl]-2-oxopiperidin-3-yl]acetamide], for which the IC50 lay within 0.001 to 0.5 µM.

In the case of `O=C(COc1ccc(Cl)c(Cl)c1)N[C@H]1CC[C@H](c2nnc(OCCC(F)(F)F)o2)NC1` [Example 20, 2-(3,4-dichlorophenoxy)-N-[(3S,6R)-6-[5-(3,3,3-trifluoropropoxy)-1,3,4-oxadiazol-2-yl]piperidin-3-yl]acetamide], the IC50 was in the range of 0.001 to 0.5 µM.

Turning to `O=C(COc1ccc(Cl)c(F)c1)N[C@H]1CC[C@H](c2nnc(OCC(F)(F)C(F)(F)F)o2)NC1` [Example 73, 2-(4-chloro-3-fluorophenoxy)-N-[(3S,6R)-6-[5-(2,2,3,3,3-pentafluoropropoxy)-1,3,4-oxadiazol-2-yl]piperidin-3-yl]acetamide], the IC50 lay in the range of 0.5 to 2 µM.

Consider `CC(COc1nnc([C@H]2CC[C@H](NC(=O)COc3ccc(Cl)c(F)c3)CN2)o1)C(F)(F)F` (stereo partly drawn) [Example 63, 2-(4-chloro-3-fluorophenoxy)-N-[(3S,6R)-6-[5-(3,3,3-trifluoro-2-methylpropoxy)-1,3,4-oxadiazol-2-yl]piperidin-3-yl]acetamide], for which the IC50 was 0.5 to 2 µM.

Take `O=C(N[C@H]1CC[C@H](c2nnc(OCCC(F)(F)F)o2)NC1)C(F)(F)Oc1ccc(Cl)c(F)c1` [Example 24, 2-(4-chloro-3-fluorophenoxy)-2,2-difluoro-N-[(3S,6R)-6-[5-(3,3,3-trifluoropropoxy)-1,3,4-oxadiazol-2-yl]piperidin-3-yl]acetamide]: the IC50 fell in the range of 0.5 to 2 µM.

Consider `O=C(COc1cc(Cl)c(Cl)c(Cl)c1)N[C@H]1CC[C@H](c2nnc(OCCC(F)(F)F)o2)NC1` [Example 26, 2-(3,4,5-trichlorophenoxy)-N-[(3S,6R)-6-[5-(3,3,3-trifluoropropoxy)-1,3,4-oxadiazol-2-yl]piperidin-3-yl]acetamide], for which the IC50 was 2 to 15 µM.

As to `O=C(COc1ccc(Cl)c(F)c1)N[C@@H]1CC[C@H](c2nnc(-c3ccc(Cl)cc3)o2)NC1` [Example 36, 2-(4-chloro-3-fluorophenoxy)-N-[(3R,6R)-6-[5-(4-chlorophenyl)-1,3,4-oxadiazol-2-yl]piperidin-3-yl]acetamide], the IC50 lay within 0.5 to 2 µM.

Consider `O=C(COc1ccc(Cl)c(F)c1)N[C@H]1CC[C@H](c2nnc(OCCCC(F)(F)F)o2)NC1` [Example 74, 2-(4-chloro-3-fluorophenoxy)-N-[(3S,6R)-6-[5-(4,4,4-trifluorobutoxy)-1,3,4-oxadiazol-2-yl]piperidin-3-yl]acetamide], for which the IC50 fell in the range of 0.001 to 0.5 µM.

For `O=C(COc1ccc(C(F)(F)F)c(Cl)c1)N[C@H]1CC[C@H](c2nnc(OCCC(F)(F)F)o2)NC1` [Example 25, 2-[3-chloro-4-(trifluoromethyl)phenoxy]-N-[(3S,6R)-6-[5-(3,3,3-trifluoropropoxy)-1,3,4-oxadiazol-2-yl]piperidin-3-yl]acetamide], the IC50 lay in the range of 0.001 to 0.5 µM.

As for `COCCN1C[C@H](NC(=O)COc2ccc(Cl)c(F)c2)CC[C@H]1c1nnc(-c2ccc(Cl)cc2)o1` [Example 48, 2-(4-chloro-3-fluoro-phenoxy)-N-[(3R,6S)-6-[5-(4-chlorophenyl)-1,3,4-oxadiazol-2-yl]-1-(2-methoxyethyl)piperidin-3-yl]acetamide], the IC50 was 0.5 to 2 µM.

Regarding `O=C(COc1cccc(C(F)(F)F)c1)N[C@H]1CC[C@H](c2nnc(OCCC(F)(F)F)o2)NC1` [Example 28, 2-[3-(trifluoromethyl)phenoxy]-N-[(3S,6R)-6-[5-(3,3,3-trifluoropropoxy)-1,3,4-oxadiazol-2-yl]piperidin-3-yl]acetamide], the IC50 was in the range of 2 to 15 µM.
